One experiment concerns the target T1, human DYRK1A (Homo sapiens, UniProt Q13627).
T1 construct: Recombinant full-length DYRK1A (expressed in E. Coli cells with an N-terminal GST tag); GST (N); purchased SignalChem D09-10G; host or cells: E. coli
Kind of experiment: DYRK1A enzyme assay (ADP-Glo). The class given is biochemical. To be noted: ADP-Glo, ATP 60 μM; read-out: DYRK1A IC50. Here is the method:
The ability of compounds to inhibit human DYRK1A kinase activities was determined using a commercially available ADP-Glo™ Kinase Assay kit (Promega, Cat #V9102) according to the manufacturer's protocol.
Recombinant full-length DYRK1A (expressed in E. Coli cells with an N-terminal GST tag) was purchased from SignalChem (Cat #D09-10G). The DYRK substrate peptide (DYRKtide, sequence: […]) was purchased from SignalChem (Cat #D96-58). This assay, run in a 384-well plate format, is a generic method for measuring kinase activities using an ADP-Glo Kinase Assay Kit. The basic assay procedure involves two steps: (1) Enzymatic step: inhibitors are incubated with the kinase and then ATP (included in the ADP-Glo Kinase Assay Kit) and the DYRKtide are added to start the enzymatic reaction; (2) Detection step: after the kinase reaction, first ADP-Glo™ Reagent is added to terminate the kinase reaction and deplete the remaining ATP. Second, the Kinase Detection Reagent is added to simultaneously convert ADP to ATP and allow the newly synthesized ATP to be measured using a luciferase/luciferin reaction. The light generated is measured using a luminometer.
Briefly, DYRK1A (3 nM) in the enzymatic buffer solutions (40 mM Tris, pH 7.5, 20 mM MgCl2, 0.1 mg/ml BSA, 50 μM DTT) were mixed with various concentrations of inhibitors (dissolved in 100% DMSO). These solutions were incubated for 30 minutes at 25° C., and subsequently a mixture of substrate peptide and ATP was added with the final peptide and ATP concentrations at 20 μM and 60 μM, respectively. The final reaction mixture of enzyme-substrate-ATP-compound was incubated for 60 minutes at 25° C.
(§1) Afterwards ADP-Glo™ Reagent was added and the mixture was incubated at 25° C. for 60 minutes. Then Kinase Detection Reagent was added and the final mixture was incubated at 25° C. for 60 minutes. The luminescence signal of the final solution was measured on an Envision instrument (PerkinElmer). The percent (%) inhibition at each concentration of a compound is calculated relative to the luminescence signal in the Max and Min control wells contained within each assay plate. […] The concentrations and percent inhibition values for a test compound are plotted and the concentration of the compound required to achieve 50% inhibition (IC50) is determined with a four-parameter logistic dose response equation.

The target of another experiment is T2, human GSK3 beta (Homo sapiens, UniProt P49841).
T2 construct: Recombinant full-length human GSK3 beta (expressed in Sf9 insect cells with an N-terminal His tag); His (N); purchased SignalChem G09-10H; host or cells: Sf9 insect cells
T2 sequence (P49841 whole entry): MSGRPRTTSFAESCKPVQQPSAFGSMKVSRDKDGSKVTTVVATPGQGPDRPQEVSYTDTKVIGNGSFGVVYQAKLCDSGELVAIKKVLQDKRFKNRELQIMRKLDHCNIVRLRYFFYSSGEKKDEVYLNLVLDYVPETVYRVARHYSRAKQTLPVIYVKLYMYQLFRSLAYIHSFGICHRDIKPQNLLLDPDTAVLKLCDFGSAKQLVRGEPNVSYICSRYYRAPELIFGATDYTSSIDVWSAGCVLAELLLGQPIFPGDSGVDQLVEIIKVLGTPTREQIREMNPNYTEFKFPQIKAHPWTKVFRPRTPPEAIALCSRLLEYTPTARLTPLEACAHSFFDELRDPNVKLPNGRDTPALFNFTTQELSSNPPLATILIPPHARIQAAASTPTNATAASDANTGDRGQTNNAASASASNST
The experiment can be described thus: GSK3 beta enzyme assay (ADP-Glo). To be noted: ATP 25 μM, read-out: GSK3b IC50. In kind it is biochemical. Here is the method: 1. GSK3 Beta Enzyme Assay
The ability of compounds to inhibit human GSK3 beta kinase activities was determined using a commercially available ADP-Glo™ Kinase Assay kit (Promega, Cat #V9102) according to the manufacturer's protocol. The ADP-Glo™ Kinase Assay is a luminescent ADP detection assay that provides a universal, homogeneous, high-throughput screening method to measure kinase activity by quantifying the amount of ADP produced during a kinase reaction. The ADP-Glo™ Kinase Assay can be used to monitor the activity of virtually any ADP-generating enzymes (e.g., kinases or ATPases).
Recombinant full-length human GSK3 beta (expressed in Sf9 insect cells with an N-terminal His tag) was purchased from SignalChem (Cat #G09-10H). The GSK3 substrate peptide (sequence: […](pS)EDEEE) was purchased from SignalChem (Cat #G50-58). This assay, run in a 384-well plate format, is a generic method for measuring kinase activities using an ADP-Glo Kinase Assay Kit. The basic assay procedure involves two steps: (1) Enzymatic step: inhibitors are incubated with the kinase and then ATP (included in the ADP-Glo Kinase Assay Kit) and the GSK3 substrate peptide are added to start the enzymatic reaction; (2) Detection step: after the kinase reaction, first ADP-Glo™ Reagent is added to terminate the kinase reaction and deplete the remaining ATP. Second, the Kinase Detection Reagent is added to simultaneously convert ADP to ATP and allow the newly synthesized ATP to be measured using a luciferase/luciferin reaction. The light generated is measured using a luminometer.
Briefly, GSK3 beta (4 nM) in the enzymatic buffer solutions (40 mM Tris, pH 7.5, 20 mM MgCl2, 0.1 mg/ml BSA, 50 μM DTT) were mixed with various concentrations of inhibitors (dissolved in 100% DMSO). These solutions were incubated for 30 minutes at 25° C., and subsequently a mixture of substrate peptide and ATP was added with the final peptide and ATP concentrations at 13 μM and 25 μM, respectively. The final reaction mixture of enzyme-substrate-ATP-compound was incubated for 60 minutes at 25° C.
as §1
(ADP-Glo first removes unused ATP, then detects ADP through luciferase.)

The term IC50 denotes the concentration that gives 50% inhibition.

SMILES strings stand for the structures.

On to `CN(C1=N/C(=C\c2ccc3c(c2)OCO3)C(=O)N1)c1ccccc1` [Example 1, (Z)-5-(benzo[d][1,3]dioxol-5-ylmethylene)-2-(methyl(phenyl)amino)-3,5-dihydro-4H-imidazol-4-one], for which, on human DYRK1A, the IC50 lay in the range of 100 to 1000 nM. Same read-out and setting: next, `O=C1/C(=C/c2ccc3c(c2)OCO3)N=C(N(Cc2ccccc2)c2ccccc2)N1Cc1ccccc1` [Example 2, (Z)-5-(benzo[d][1,3]dioxol-5-ylmethylene)-3-benzyl-2-(benzyl(phenyl)amino)-3,5-dihydro-4H-imidazol-4-one]: 1000 to 10000 nM; `CN1C(=O)/C(=C/c2ccc3c(c2)OCO3)N=C1N(C)c1ccccc1` [Example 3, (Z)-5-(benzo[d][1,3]dioxol-5-ylmethylene)-3-methyl-2-(methyl(phenyl)amino)-3,5-dihydro-4H-imidazol-4-one]: 1000 to 10000 nM.

As for `O=C1NC(Nc2ccccc2)=N/C1=C\c1ccc2ncsc2c1` [Example 6, (Z)-5-(benzo[d]thiazol-6-ylmethylene)-2-(phenylamino)-3,5-dihydro-4H-imidazol-4-one], the IC50 at human GSK3 beta was 100 to 1000 nM. As to `CN(C1=N/C(=C\c2ccc3ncsc3c2)C(=O)N1)c1ccccc1` [Example 7, (Z)-5-(benzo[d]thiazol-6-ylmethylene)-2-(methyl(phenyl)amino)-3,5-dihydro-4H-imidazol-4-one], the figures for the IC50 at human GSK3 beta and at human DYRK1A were 1000 to 10000 nM and 100 to 1000 nM, respectively. As to `CN(C1=N/C(=C\c2ccc3c(c2)OCCO3)C(=O)N1)c1ccccc1` [Example 8, (Z)-5-((2,3-dihydrobenzo[b][1,4]dioxin-6-yl)methylene)-2-(methyl(phenyl)amino)-3,5-dihydro-4H-imidazol-4-one], the IC50 on human GSK3 beta is more than 10000 nM; on human DYRK1A, 1000 to 10000 nM. In the case of `O=C1NC(Nc2ccccc2)=N/C1=C\c1ccc(=O)[nH]c1` [Example 9, (Z)-5-((5-oxo-2-(phenylamino)-1,5-dihydro-4H-imidazol-4-ylidene)methyl)pyridin-2(1H)-one], the figures for the IC50 at human GSK3 beta and at human DYRK1A were more than 10000 nM and 100 to 1000 nM, respectively. `COc1ccc(NC2=N/C(=C\c3ccc4ncsc4c3)C(=O)N2)cc1` [Example 25, (Z)-5-(benzo[d]thiazol-6-ylmethylene)-2-((4-methoxyphenyl)amino)-3,5-dihydro-4H-imidazol-4-one]: the IC50 on human GSK3 beta is more than 10000 nM. Still for that read-out and setting: next, `O=C1NC(NCc2ccccc2)=N/C1=C\c1ccc2ncsc2c1` [Example 31, (Z)-5-(benzo[d]thiazol-6-ylmethylene)-2-(benzylamino)-3,5-dihydro-4H-imidazol-4-one]: 1000 to 10000 nM; `O=C1NC(NCC2CC2)=N/C1=C\c1ccc2ncsc2c1` [Example 34, (Z)-5-(benzo[d]thiazol-6-ylmethylene)-2-((cyclopropylmethyl)amino)-3,5-dihydro-4H-imidazol-4-one]: 1000 to 10000 nM; `O=C1NC(Nc2ccc(Cl)cc2)=N/C1=C\c1ccc2ncsc2c1` [Example 40, (Z)-5-(benzo[d]thiazol-6-ylmethylene)-2-((4-chlorophenyl)amino)-3,5-dihydro-4H-imidazol-4-one]: more than 10000 nM. As to `O=C1NC(Nc2ccc3ncsc3c2)=N/C1=C\c1ccc2ncsc2c1` [Example 48, (Z)-2-(benzo[d]thiazol-6-ylamino)-5-(benzo[d]thiazol-6-ylmethylene)-3,5-dihydro-4H-imidazol-4-one], the IC50 at human GSK3 beta is more than 10000 nM.

`O=C1NC(Nc2ccc3ncsc3c2)=N/C1=C\c1ccc2scnc2c1` [Example 57, (Z)-5-(benzo[d]thiazol-5-ylmethylene)-2-(benzo[d]thiazol-6-ylamino)-3,5-dihydro-4H-imidazol-4-one]: on human GSK3 beta, the IC50 is more than 10000 nM.

For the molecule `O=C1NC(Nc2ccc3nccnc3c2)=N/C1=C\c1ccc2ncsc2c1` [Example 82, (Z)-5-(benzo[d]thiazol-6-ylmethylene)-2-(quinoxalin-6-ylamino)-3,5-dihydro-4H-imidazol-4-one], the IC50 at human GSK3 beta lay within 100 to 1000 nM.

These data come from patent US12643887B2, “Heterocyclic derivatives with cardiomyocyte proliferation activity for treatment of heart diseases” (Tongji University, priority 2019, dated 2026).
